From patent US5212188A, “Method for treatment of neurodegenerative diseases” (R. J. Reynolds Tabacco Company, priority 1992, dated 1993)

Experiments:
[1] = test system: synaptosomes from the striatal area of rat brain; assay: [3H]-dopamine release from striatal synaptosomes, continuous perfusion; format: cell-based, Sprague-Dawley rats; settings: 0.2 ml of a 20 μM solution of ligand, relative to equal concentration of S(-) nicotine, read-out: Dopamine Release (percent release relative to S(-) nicotine)
Method: Dopamine release was measured by preparing synaptosomes from the striatal area of rat brain obtained from Sprague-Dawley rats generally according to the procedures set forth by Nagy, et al., J. Neurochem., Vol. 43, pp. 1114-1123 (1984). Striata from 4 rats were homogenized in 2 ml of 0.32M sucrose buffered with 5 mM HEPES (pH 7.5), using a glass-teflon tissue grinder. The homogenate was diluted to 5 ml with additional homogenization solution and centrifuged at 1000×g for 10 min. This procedure was repeated on the new pellet and the resulting supernatant was centrifuged at 12,000×g for 20 min. […] Using this method, 30 to 90 percent of the dopamine was taken up into the synaptosomes, as determined by scintillation counting following filtration through glass fiber filters soaked with 0.5 percent polyethyleneimine. […] After the addition of a 0.2 ml of a 20 μM solution of ligand, the perfusate was collected into scintillation vials at 1 min. intervals and the dopamine released was quantified by scintillation counting. Peaks of radioactivity released above background were summed and the average basal release during that time was subtracted from the total. Release was expressed as a percentage of release obtained with an equal concentration of S(-) nicotine.

[2] = target: high affinity nicotinic receptors; assay: Inhibition of L-[3H]nicotine binding to mouse brain membrane preparations; parameters: species or system Mice (DBA strain); settings: 10 nM L-[3H]nicotine, 2 hr at 4° C., mouse brain membranes, Ki calculated from IC50 by Cheng method
Method: Mice (DBA strain) were maintained on a 12 hour light/dark cycle and were allowed free access to water and food supplied by Wayne Lab Blox, Madison, WI. Animals used in the present studies were 60 to 90 days of age and weighed 20 to 25 g. Brain membrane preparations were obtained from pooled brain tissue of both males and females.
Mice were killed by cervical dislocation. Brains were removed and placed on an ice-cold platform. The cerebellum was removed and the remaining tissue was placed in 10 volumes (weight:volume) of ice-cold buffer (Krebs-RingersHEPES:NaCl, 118 mM; KCl, 4.8 mM; CaCl2, 2.5 mM; MgSO4, 1.2 mM; HEPES, 20 mM; pH to 7.5 with NaOH) and homogenized with a glass-Teflon tissue grinder. The resulting homogenate was centrifuged at 18000×g for 20 min. and the resulting pellet was resuspended in 20 volumes of water. […] Protein was determined by the method of Lowry, et al., J. Biol. Chem., Vol. 193, pp. 265-275 (1951), using bovine serum albumin as the standard.
The binding of L-[^3 H]nicotine was measured using a modification of the method of Romano, et al., Science, Vol. 210, pp. 647-650 (1980) as described previously by Marks, et al., Mol. Pharmacol., Vol. 30, pp. 427-436 (1986). The binding of L-[^3 H]nicotine was measured using a 2 hr. incubation at 4° C. […] Nonspecific binding was determined by inclusion of 10 μM nonradioactive nicotine in the incubations. […]

CNCC/C=C/c1cccnc1 [trans-meta-nicotine]
Emax [1]: 70%
Ki [2]: 21 ± 5 nM
